Experimental data as given in ChEMBL document CHEMBL5120870, “Calysepins I-VII, Hexasaccharide Resin Glycosides from Calystegia sepium and Their Cytotoxic Evaluation” (J Nat Prod, 2022).

Test system: A549
Experiment: Cytotoxicity against human A549 cells incubated for 24 hrs by CCK8 assay
Type: functional, cell-based
Settings: A549, 24 h

For `CCCCC[C@@H]1CCCCCCCCCC(=O)O[C@H]2[C@H](OC[C@H]3O[C@@H](O[C@H]4[C@H](O)[C@@H](CO)O[C@@H](O[C@H]5[C@H](O1)O[C@H](C)[C@@H](O)[C@@H]5O)[C@@H]4O[C@@H]1O[C@@H](C)[C@H](OC(=O)[C@@H](C)CC)[C@@H](O[C@@H]4O[C@H](CO)[C@@H](OC(=O)[C@@H](C)CC)[C@H](O)[C@H]4O)[C@H]1OC(=O)[C@@H](C)CC)[C@H](O)[C@@H](O)[C@@H]3OC(=O)[C@@H](C)[C@H](C)O)O[C@H](CO)[C@@H](OC(=O)[C@@H](C)CC)[C@@H]2O`, the IC50 was 5.2 µM.
